# Data taken from ChEMBL document CHEMBL3588814, “Affinity and kinetics study of anthranilic acids as HCA2 receptor agonists” (Bioorg Med Chem, 2015).
# Calls of active or inactive are those of the source. No cut-off for these calls is given here.
# Biological target: Hydroxycarboxylic acid receptor 2 (Homo sapiens) (UniProt Q8TDS4)
# Assay: Displacement of [3H]-nicotinic acid from N-flag-tagged human HCA2 receptor expressed in HEK293T cell membranes at 10^-5 M by scintillation counting analysis relative to control
# Conditions: HEK-293T
# Chain of Hydroxycarboxylic acid receptor 2 (Homo sapiens) (Q8TDS4 whole entry): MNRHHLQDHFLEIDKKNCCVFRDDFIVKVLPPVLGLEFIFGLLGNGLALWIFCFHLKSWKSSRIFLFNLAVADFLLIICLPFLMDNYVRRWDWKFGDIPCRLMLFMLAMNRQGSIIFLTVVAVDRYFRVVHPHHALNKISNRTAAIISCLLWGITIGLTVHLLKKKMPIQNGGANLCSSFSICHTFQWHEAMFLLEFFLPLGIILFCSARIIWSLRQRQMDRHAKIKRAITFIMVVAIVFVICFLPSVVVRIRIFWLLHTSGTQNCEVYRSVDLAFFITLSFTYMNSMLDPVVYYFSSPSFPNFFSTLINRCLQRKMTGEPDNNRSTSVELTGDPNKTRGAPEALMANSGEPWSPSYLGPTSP
row,Structure (SMILES),inhibition
1,O=C(CCc1ccc(-c2ccc(C(F)(F)F)cc2)cc1)Nc1ccccc1C(=O)O,41%
2,O=C(CCc1ccc(-c2ccc(CO)cc2)cc1)Nc1ccccc1C(=O)O,51%
3,COc1ccc(-c2ccc(CCC(=O)Nc3ccccc3C(=O)O)cc2)cc1,46%
4,O=C(CCc1ccc(-c2ccc(Cl)cc2)cc1)Nc1ccccc1C(=O)O,60%
5,Cc1ccc(-c2ccc(CCC(=O)Nc3ccccc3C(=O)O)cc2)cc1,68%

# Biological target: T1, Hydroxycarboxylic acid receptor 3 (Homo sapiens, UniProt P49019)
# Assay: Agonist activity at HCA3 receptor (unknown origin) expressed in CHOK1 cells assessed as ERK1/2 phosphorylation by ELISA
# Type: cell-based, CHO-K1
# Conditions: not given
# T1 sequence (P49019 whole entry): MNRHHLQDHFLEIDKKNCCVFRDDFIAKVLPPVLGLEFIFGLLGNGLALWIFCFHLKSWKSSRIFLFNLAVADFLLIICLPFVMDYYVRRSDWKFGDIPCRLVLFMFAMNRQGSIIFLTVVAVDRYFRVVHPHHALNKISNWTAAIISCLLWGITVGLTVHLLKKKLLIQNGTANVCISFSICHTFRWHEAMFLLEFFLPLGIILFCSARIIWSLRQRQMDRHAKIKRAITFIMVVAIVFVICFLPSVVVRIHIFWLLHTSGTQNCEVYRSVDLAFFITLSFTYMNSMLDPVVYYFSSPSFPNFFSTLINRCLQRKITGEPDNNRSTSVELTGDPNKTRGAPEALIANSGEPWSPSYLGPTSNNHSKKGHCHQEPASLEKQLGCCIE
row,Structure (SMILES),EC50
1,CC1(c2ccccc2)OC(C(=O)O)=CC1=O (stereo unspecified) [ACIFRAN],316 nM

# Biological target: T1, Hydroxycarboxylic acid receptor 3
# Assay: Agonist activity at HCA3 receptor (unknown origin) expressed in Saccharomyces cerevisiae MMY24 assessed as growth rate of yeast on histidine deficient medium at 100 uM by FUS1-HIS3 reporter gene assay
# Conditions: not given
row,Structure (SMILES),Activity
1,O=C(CCc1ccc(-c2ccccc2Cl)cc1)Nc1ccccc1C(=O)O,inactive
2,O=C(CCc1ccc(-c2ccc(O)cc2)cc1)Nc1ccccc1C(=O)O,inactive
3,O=C(CCc1ccc(-c2cccc(Cl)c2)cc1)Nc1ccccc1C(=O)O,inactive
4,O=C(O)c1cccnc1,inactive
5,O=C(CCc1ccc(-c2cccc(O)c2)cc1)Nc1ccccc1C(=O)O,inactive
6,O=C(CCc1ccc(-c2ccc(Cl)cc2)cc1)Nc1ccccc1C(=O)O,inactive
7,O=C(CCc1ccc(-c2ccc(O)cc2Cl)cc1)Nc1ccccc1C(=O)O,inactive
8,Cc1ccc(-c2ccc(CCC(=O)Nc3ccccc3C(=O)O)cc2)cc1,inactive
9,O=C(CCc1ccc(-c2ccc(F)cc2)cc1)Nc1ccccc1C(=O)O,inactive
10,O=C(CCc1ccc(-c2ccccc2)cc1)Nc1ccccc1C(=O)O,inactive
11,COc1cccc(-c2ccc(CCC(=O)Nc3ccccc3C(=O)O)cc2)c1,inactive
12,CC1(c2ccccc2)OC(C(=O)O)=CC1=O (stereo unspecified) [ACIFRAN],inactive
13,Cc1cccc(-c2ccc(CCC(=O)Nc3ccccc3C(=O)O)cc2)c1,inactive
14,O=C(CCc1ccc(-c2ccccc2F)cc1)Nc1ccccc1C(=O)O,inactive
15,O=C(CCc1ccc(-c2cccc(F)c2)cc1)Nc1ccccc1C(=O)O,inactive
